Values quoted from earlier work as cited in patent publication US20100113469A1, “COMBINATION THERAPY FOR THE TREATMENT-OF LOWER URINARY TRACT SYMPTOMS” (MERCK & CO., INC., priority 2007, published 2010).

Tests used:
rats [1] = conditions: hyperreflexia paradigms, intravenous
rats [2] = conditions: detrusor instability paradigm, oral
rats [3] = conditions: intravenous
patients = conditions: instilled directly into the bladder
human bladders = conditions: in vitro
rats [4] = test system: rats

**Q.** With `C[C@H](Cc1ccc2c(c1)OC(C(=O)[O-])(C(=O)[O-])O2)NC[C@H](O)c1cccc(Cl)c1.[Na+].[Na+]` [CL316243] as the compound, how does the voiding interval (rats [1]) read?
**A.** Its voiding interval is “dose-dependently normalizes voiding interval”.

**Q.** And the spontaneous bladder contractions (rats [2])?
**A.** The spontaneous bladder contractions was “dose-dependent inhibition of spontaneous bladder contractions”.

**Q.** What about the bladder pressure (rats [3]) of the same compound?
**A.** The bladder pressure was “reduces bladder pressure”.

**Q.** What about the bladder capacity (rats [3]; cystometric studies) of the same compound?
**A.** The bladder capacity was “increases bladder capacity”.

**Q.** What about the residual urine volume (rats [3]; cystometric studies) of the same compound?
**A.** The residual urine volume was “without increasing residual urine volume”.

**Q.** Which “patients with beneficial effects (i.e. increased bladder capacity)” value (patients) does the source give for `COc1cc(CNC(=O)CCCC/C=C/C(C)C)ccc1O` [Capsaicin, capsaicin] here?
**A.** Its value is about 70%.

**Q.** With `CCCCCCNC(=O)Nc1ccc(S(=O)(=O)Nc2ccc(CCNC[C@H](O)COc3ccc(O)cc3)cc2)cc1` [L-755507] as the compound, how does the “relaxation evoked in control versus obstructed human bladders” value (human bladders) read?
**A.** Its value is “equivalent”.

**Q.** For `COc1ccccc1CC(=N)N1C[C@@H]2C(=O)CCC(c3ccccc3)(c3ccccc3)[C@@H]2C1` [RP 67580], which volume threshold (rats [4]; cyclophosphamide-induced bladder overactivity, i.t. vs i.v.) is on record?
**A.** Its volume threshold is “increased the volume threshold after i.t., but not i.v. administration”.

**Q.** For `C=C(C)[C@]12C[C@@H](C)[C@@]34O[C@](Cc5ccccc5)(O[C@@H]1[C@@H]3C=C(COC(=O)Cc1ccc(O)c(OC)c1)C[C@]1(O)C(=O)C(C)=C[C@@H]41)O2` [Resinferatoxin], which “potency relative to capsaicin” value (C-fibers) is on record?
**A.** Its value is about 100 fold.

**Q.** For `CC(=O)NC1(c2ccccc2)CCN(CC[C@H](CN(C)C(=O)c2ccccc2)c2ccc(Cl)c(Cl)c2)CC1` [SR 48968], which “response in cyclophosphamide-induced model” value (rats [4]; 10 nmol/rat) is on record?
**A.** The value was “moderate response”.

**Q.** Which “carbachol or electrical field stimulation induced contractions” value (isolated bladder strips) does the source give for `Cc1ccc(-c2c3n(c(=O)c4ncccc24)CC[C@@H](C)CN(Cc2cc(C(F)(F)F)cc(C(F)(F)F)c2)C3=O)cc1` [TAK-637] here?
**A.** Its value is “had no effect”.

**Q.** What about the “micturition reflex induced by topical application of capsaicin onto the bladder dome” value (guinea pig; guinea pig, in vivo) of the same compound?
**A.** The value was “inhibited the micturition reflex”.

**Q.** What about the “distension-induced rhythmic bladder contractions” value (guinea pig; guinea pig, systemic administration) of the same compound?
**A.** The value was “decreased the number but not the amplitude”.

**Q.** And the “spinal vesico-vesical reflex induced by electrical stimulation of the proximal cut end of the pelvic nerve” value (guinea pig; spinal animals)?
**A.** Its value is “inhibits the spinal vesico-vesical reflex”.

**Q.** What about the “micturition reflex induced by electrical stimulation of the rostral brainstem near the locus coeruleus” value (decerebrate cats; 3 mg/kg i.v.) of the same compound?
**A.** The value was “did not inhibit”.

**Q.** And the voiding efficiency (decerebrate cats; decerebrate cats, 0.1, 0.3, 1 and 3 mg/kg i.v.)?
**A.** The voiding efficiency was “without any significant reduction in voiding efficiency”.

**Q.** What about the “maximal increase in bladder capacity” value (decerebrate cats; decerebrate cats, 0.1, 0.3, 1 and 3 mg/kg i.v., dose-dependent) of the same compound?
**A.** The value was 94%.
